Molecular target: T1, P70S6K (T412E mutant, Millipore) (Homo sapiens, UniProt P23443, T412E)
T1 construct: purchased Millipore
Experiment: p70S6K enzyme assay
Type: biochemical
Details: Table 1; 3 nM P70S6K, 24 μM ATP, 90 min at 25° C.; read-out: p70S6K inhibition (IC50)
Procedure: P70S6K inhibitor compounds are diluted and plated in 96 well plates. A reaction mixture including the following components is then added to the compound plate to initiate the enzyme reaction; P70S6K (3 nM, T412E mutant, Millipore) is mixed with 24 μM ATP in an assay buffer containing 100 mM Hepes (pH 7.5), 5 mM MgCl2, 1 mM DTT, 0.015% Brij and 1 μM of the substrate peptide FITC-AHA-AKRRRLSSLRA-OH (derived from the S6 ribosomal protein sequence, FITC=fluorescein isothiocyanate, AHA=6-aminohexanoic acid). The reaction is incubated for 90 min at 25° C., before the addition of 10 mM EDTA to stop the reaction. The proportion of substrate and product (phosphorylated) peptide is analysed on a Caliper Life Sciences Lab Chip 3000, using a pressure of −1.4 psi, and upstream and downstream voltages of −3000 and −700 respectively. Product peaks are resolved before substrate peaks on the resulting chromatograms.

T1 sequence (P23443 whole entry T412E): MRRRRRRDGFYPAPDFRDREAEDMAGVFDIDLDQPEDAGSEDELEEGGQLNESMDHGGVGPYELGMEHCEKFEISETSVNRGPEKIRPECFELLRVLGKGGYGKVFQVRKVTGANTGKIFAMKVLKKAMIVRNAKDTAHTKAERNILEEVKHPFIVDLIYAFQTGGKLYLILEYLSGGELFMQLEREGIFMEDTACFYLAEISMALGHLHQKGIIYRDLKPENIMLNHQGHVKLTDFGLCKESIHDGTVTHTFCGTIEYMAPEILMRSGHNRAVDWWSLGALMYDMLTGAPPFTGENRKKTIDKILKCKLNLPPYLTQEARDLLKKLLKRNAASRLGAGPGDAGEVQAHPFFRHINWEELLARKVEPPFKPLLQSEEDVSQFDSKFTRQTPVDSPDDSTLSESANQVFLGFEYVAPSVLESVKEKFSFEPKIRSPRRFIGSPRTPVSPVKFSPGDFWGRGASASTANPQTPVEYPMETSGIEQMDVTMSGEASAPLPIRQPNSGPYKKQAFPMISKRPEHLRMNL

How did the IC50 turn out when `O=C(NCCc1ccc(F)cc1)c1sccc1Nc1ncnc2[nH]ccc12` [Example 145, 3-(7H-Pyrrolo[2,3-d]pyrimidin-4-ylamino)-thiophene-2-carboxylic acid [2-(4-fluoro-phenyl)-ethyl]-amide] was run?
The IC50 was under 100 nM.

Which IC50 does the source give for `Cc1cc(Nc2ncnc3[nH]ccc23)c(C(=O)NCc2cccc(Cl)c2)s1` [Example 152, 5-Methyl-3-(7H-pyrrolo[2,3-d]pyrimidin-4-ylamino)-thiophene-2-carboxylic acid 3-chloro-benzylamide] here?
Its IC50 is under 100 nM.

Same assay, conditions: class symbol; 3 nM P70S6K, 24 μM ATP; read-out: IC50 (p70S6K)

`O=C(NCCNCc1ccncc1)c1sccc1Nc1ccnc2[nH]ccc12` [Example 74, 3-(1H-Pyrrolo[2,3-b]pyridin-4-ylamino)-thiophene-2-carboxylic acid {2-[(pyridin-4-ylmethyl)-amino]-ethyl}-amide] was tested. Which IC50 did it give?
The IC50 was 100 to 1000 nM.

With `O=C(N[C@@H](CO)Cc1ccccc1)c1sccc1Nc1ccnc2[nH]ccc12` [Example 81, 3-(1H-Pyrrolo[2,3-b]pyridin-4-ylamino)-thiophene-2-carboxylic acid ((R)-1-benzyl-2-hydroxy-ethyl)-amide] as the compound, how does the IC50 read?
Its IC50 is 1000 to 10000 nM.

With `O=C(NCCNCc1ccccc1)c1sccc1Nc1ncnc2[nH]ccc12` [Example 183, 3-(7H-Pyrrolo[2,3-d]pyrimidin-4-ylamino)-thiophene-2-carboxylic acid (2-benzylamino-ethyl)-amide] as the compound, how does the IC50 read?
The IC50 was under 100 nM.

Which IC50 does the source give for `O=C(NCCNCc1ccccc1)c1ccsc1Nc1ccnc2[nH]ccc12` [Example 72, 2-(1H-Pyrrolo[2,3-b]pyridin-4-ylamino)-thiophene-3-carboxylic acid (2-benzylamino-ethyl)-amide] here?
The IC50 was under 100 nM.

For `NC[C@@H](NC(=O)c1sccc1Nc1ccnc2[nH]ccc12)c1ccc(Cl)c(Cl)c1` (stereo in doubt) [Example 125, 3-(1H-Pyrrolo[2,3-b]pyridin-4-ylamino)-thiophene-2-carboxylic acid [2-amino-1-(3,4-dichloro-phenyl)-ethyl]-amide], which IC50 is on record?
The IC50 was under 100 nM.

Which IC50 does the source give for `O=C(N[C@H](CO)Cc1ccccc1)c1sccc1Nc1ccnc2[nH]ccc12` [Example 86, 3-(1H-Pyrrolo[2,3-b]pyridin-4-ylamino)-thiophene-2-carboxylic acid ((S)-1-benzyl-2-hydroxy-ethyl)-amide] here?
Its IC50 is under 100 nM.

`O=C(NCCNCc1ccc(Cl)c(C(F)(F)F)c1)c1sccc1Nc1ccnc2[nH]ccc12` [Example 90, 3-(1H-Pyrrolo[2,3-b]pyridin-4-ylamino)-thiophene-2-carboxylic acid [2-(4-chloro-3-trifluoromethyl-benzylamino)-ethyl]-amide] was tested. Which IC50 did it give?
The IC50 was under 100 nM.

How did the IC50 turn out when `COc1ccc(CNCCNC(=O)c2sccc2Nc2ccnc3[nH]ccc23)cc1Cl` [Example 137, 3-(1H-Pyrrolo[2,3-b]pyridin-4-ylamino)-thiophene-2-carboxylic acid [2-(3-chloro-4-methoxy-benzylamino)-ethyl]-amide] was run?
The IC50 was under 100 nM.

With `COc1ccc(NC(=O)c2sccc2Nc2ccnc3[nH]ccc23)cc1` [Example 36, 3-(1H-Pyrrolo[2,3-b]pyridin-4-ylamino)-thiophene-2-carboxylic acid (4-methoxy-phenyl)-amide] as the compound, how does the IC50 read?
Its IC50 is under 100 nM.

With `Cc1cccc(CN(CCNC(=O)c2sccc2Nc2ccnc3[nH]ccc23)Cc2cccc(C)c2)c1` [Example 55, 3-(1H-Pyrrolo[2,3-b]pyridin-4-ylamino)-thiophene-2-carboxylic acid {2-[bis-(3-methyl-benzyl)-amino]-ethyl}-amide] as the compound, how does the IC50 read?
Its IC50 is 100 to 1000 nM.

`CNCCNC(=O)c1sccc1Nc1ncnc2[nH]ccc12` [Example 185, 3-(7H-Pyrrolo[2,3-d]pyrimidin-4-ylamino)-thiophene-2-carboxylic acid (2-methylamino-ethyl)-amide] was tested. Which IC50 did it give?
Its IC50 is 100 to 1000 nM.

How did the IC50 turn out when `CC(=O)NCCCCNC(=O)c1sccc1Nc1ccnc2[nH]ccc12` [Example 32, 3-(1H-Pyrrolo[2,3-b]pyridin-4-ylamino)-thiophene-2-carboxylic acid (4-acetylamino-butyl)-amide] was run?
The IC50 was 100 to 1000 nM.

Which IC50 does the source give for `O=C(NCCc1cccc(Cl)c1)c1sccc1Nc1ccnc2[nH]ccc12` [Example 20, 3-(1H-Pyrrolo[2,3-b]pyridin-4-ylamino)-thiophene-2-carboxylic acid [2-(3-chloro-phenyl)-ethyl]-amide] here?
Its IC50 is under 100 nM.

`Cc1cc(Nc2ncnc3[nH]ccc23)c(C(=O)NCc2cccc(Cl)c2)s1` [Example 178, 5-Methyl-3-(7H-pyrrolo[2,3-d]pyrimidin-4-ylamino)-thiophene-2-carboxylic acid 3-chloro-benzylamide] was tested. Which IC50 did it give?
Its IC50 is 100 to 1000 nM.

With `O=C(NCCc1ccccn1)c1sccc1Nc1ccnc2[nH]ccc12` [Example 19, 3-(1H-Pyrrolo[2,3-b]pyridin-4-ylamino)-thiophene-2-carboxylic acid (2-pyridin-2-yl-ethyl)-amide] as the compound, how does the IC50 read?
Its IC50 is 100 to 1000 nM.

Which IC50 does the source give for `CN(C)CC(NC(=O)c1sccc1Nc1ccnc2[nH]ccc12)c1cccc(Cl)c1` (stereo not shown) [Example 159, 3-(1H-Pyrrolo[2,3-b]pyridin-4-ylamino)-thiophene-2-carboxylic acid [1-(3-chloro-phenyl)-2-dimethylamino-ethyl]-amide] here?
The IC50 was under 100 nM.

With `Cc1ccc(CNCCNC(=O)c2sccc2Nc2ccnc3[nH]ccc23)cc1` [Example 136, 3-(1H-Pyrrolo[2,3-b]pyridin-4-ylamino)-thiophene-2-carboxylic acid [2-(4-methyl-benzylamino)-ethyl]-amide] as the compound, how does the IC50 read?
The IC50 was under 100 nM.

How did the IC50 turn out when `O=C(NCc1ccccn1)c1sccc1Nc1ccnc2[nH]ccc12` [Example 7, 3-(1H-Pyrrolo[2,3-b]pyridin-4-ylamino)-thiophene-2-carboxylic acid (pyridin-2-ylmethyl)-amide] was run?
The IC50 was 100 to 1000 nM.

For `NCCCNC(=O)c1sccc1Nc1ccnc2[nH]ccc12` [Example 67, 3-(1H-Pyrrolo[2,3-b]pyridin-4-ylamino)-thiophene-2-carboxylic acid (3-amino-propyl)-amide], which IC50 is on record?
The IC50 was 100 to 1000 nM.

For `O=C(N[C@@H](CO)Cc1ccccc1)c1ccsc1Nc1ccnc2[nH]ccc12` [Example 119, 2-(1H-Pyrrolo[2,3-b]pyridin-4-ylamino)-thiophene-3-carboxylic acid ((R)-1-hydroxymethyl-2-phenyl-ethyl)-amide], which IC50 is on record?
The IC50 was 100 to 1000 nM.

With `O=C(NCCNS(=O)(=O)c1ccccc1)c1sccc1Nc1ccnc2[nH]ccc12` [Example 71, 3-(1H-Pyrrolo[2,3-b]pyridin-4-ylamino)-thiophene-2-carboxylic acid (2-benzenesulfonylamino-ethyl)-amide] as the compound, how does the IC50 read?
Its IC50 is 100 to 1000 nM.

With `O=C(NCCNCc1ccc(F)cc1)c1sccc1Nc1ccnc2[nH]ccc12` [Example 62, 3-(1H-Pyrrolo[2,3-b]pyridin-4-ylamino)-thiophene-2-carboxylic acid [2-(4-fluoro-benzylamino)-ethyl]-amide] as the compound, how does the IC50 read?
The IC50 was under 100 nM.

Which IC50 does the source give for `O=C(N[C@@H](CO)c1ccccc1)c1sccc1Nc1ccnc2[nH]ccc12` [Example 43, R-[3-(1H-Pyrrolo[2,3-b]pyridin-4-ylamino)-thiophene-2-carboxylic acid (2-hydroxy-1-phenyl-ethyl)-amide]] here?
The IC50 was 1000 to 10000 nM.

For `CC(C)(C)OC(=O)N1CCCC(NC(=O)c2sccc2Nc2ncnc3[nH]ccc23)C1` (stereo not shown) [Example 184, 3-{[3-(7H-Pyrrolo[2,3-d]pyrimidin-4-ylamino)-thiophene-2-carbonyl]-amino}-piperidine-1-carboxylic acid tert-butyl ester], which IC50 is on record?
The IC50 was 100 to 1000 nM.

Which IC50 does the source give for `O=C(c1sccc1Nc1ccnc2[nH]ccc12)N1CCCC1` [Example 4, Pyrrolidin-1-yl-[3-(1H-pyrrolo[2,3-b]pyridin-4-ylamino)-thiophen-2-yl]-methanone] here?
Its IC50 is 100 to 1000 nM.

How did the IC50 turn out when `NC1CCN(C(=O)c2sccc2Nc2ccnc3[nH]ccc23)CC1` [Example 64, (4-Amino-piperidin-1-yl)-[3-(1H-pyrrolo[2,3-b]pyridin-4-ylamino)-thiophen-2-yl]-methanone] was run?
The IC50 was 1000 to 10000 nM.

How did the IC50 turn out when `CCNc1cc(C(=O)Nc2cccc(CNC(=O)c3sccc3Nc3ccnc4[nH]ccc34)c2)ccn1` [Example 165, 2-Ethylamino-N-[3-({[3-(1H-pyrrolo[2,3-b]pyridin-4-ylamino)-thiophene-2-carbonyl]-amino}-methyl)-phenyl]-isonicotinamide] was run?
Its IC50 is under 100 nM.

Which IC50 does the source give for `O=C(NC[C@H]1CCCN1)c1sccc1Nc1ccnc2[nH]ccc12` [Example 93, 3-(1H-Pyrrolo[2,3-b]pyridin-4-ylamino)-thiophene-2-carboxylic acid ((R)-1-pyrrolidin-2-ylmethyl)-amide] here?
The IC50 was 100 to 1000 nM.

How did the IC50 turn out when `O=C(NCCNc1ccccc1)c1sccc1Nc1ccnc2[nH]ccc12` [Example 34, 3-(1H-Pyrrolo[2,3-b]pyridin-4-ylamino)-thiophene-2-carboxylic acid (2-phenylamino-ethyl)-amide] was run?
Its IC50 is under 100 nM.

Which IC50 does the source give for `Cc1ccccc1CCNC(=O)c1sccc1Nc1ncnc2[nH]ccc12` [Example 181, 3-(7H-Pyrrolo[2,3-d]pyrimidin-4-ylamino)-thiophene-2-carboxylic acid (2-o-tolyl-ethyl)-amide] here?
Its IC50 is under 100 nM.

How did the IC50 turn out when `O=C(N[C@H](CO)Cc1ccccc1)c1ccsc1Nc1ccnc2[nH]ccc12` [Example 118, 2-(1H-Pyrrolo[2,3-b]pyridin-4-ylamino)-thiophene-3-carboxylic acid ((S)-1-hydroxymethyl-2-phenyl-ethyl)-amide] was run?
The IC50 was under 100 nM.

Same assay, conditions: numeric bound printed under the example; read-out: IC50 (p70S6K)

With `O=C(N[C@H](CO)c1ccccc1)c1sc2ccccc2c1Nc1ccnc2[nH]ccc12` [Example 83, 3-(1H-Pyrrolo[2,3-b]pyridin-4-ylamino)-benzo[b]thiophene-2-carboxylic acid ((S)-2-hydroxy-1-phenyl-ethyl)-amide] as the compound, how does the IC50 read?
The IC50 was over 10000 nM.

— US9023847B2, “Azaheterocyclic compounds” (Merck Patent GmbH, priority 2009, dated 2015)
